Tested on: human hepatocytes
Assay: Human hepatocyte stability test
Format: in vitro ADME
Conditions: human hepatocyte suspension, percent of hepatic blood flow
Protocol: A more comprehensive way to measure the metabolic stability of a compound of the instant invention than microsomal stability (section 5.6) is the human hepatocyte stability test as described below. Herein the metabolic degradation for the compound in question is performed in a human hepatocyte suspension.
Human hepatocytes (typically cryopreserved) are incubated in an appropriate buffer system (e.g. Dulbecco's modified eagle medium plus 3.5 μg glucagon/500 mL, 2.5 mg insulin/500 mL and 3.75 mg/500 mL hydrocortison) containing 5% species serum.
Following a (typically) 30 min preincubation in an incubator (37° C., 10% CO2) 5 μl of the solution of the compound to be tested ([…]; from 2 mM in DMSO stock solution diluted 1:25 with medium) are added into 395 μl hepatocyte suspension (cell density is in the range of 0.25-5 Mio cells/mL, typically 1 Mio cells/mL; the final concentration of the compound in question is […], the final DMSO concentration is 0.05%).
The cells are incubated for six hours (incubator, orbital shaker) and samples (25 μl) are taken at 0, 0.5, 1, 2, 4 and 6 hours. Samples are transferred into acetonitrile and pelleted by centrifugation (5 min). The supernatant is transferred to a new 96-deepwell plate, evaporated under nitrogen and resuspended.
The decline of the compound to be tested is analyzed by HPLC-MS/MS.
CLint is calculated as follows CL_INTRINSIC=Dose/AUC=(C0/CD)/(AUD+clast/k)×1000/60.
C0: initial concentration in the incubation [μM], CD: cell density of vital cells [10^6 cells/mL], AUD: area under the data [μM×h], clast: concentration of last data point [μM], k: slope of the regression line for the compound in question decline [h−1].
The calculated in vitro hepatic intrinsic clearance can be scaled up to the intrinsic in vivo hepatic Clearance and used to predict hepatic in vivo blood clearance (CL) by the use of a liver model (well stirred model). CL_INTRINSIC_INVIVO [ml/min/kg]=(CL_INTRINSIC [μL/min/10^6cells]×hepatocellularity[10^6 cells/g liver]×liver factor [g/kg bodyweight])/1000 CL [ml/min/kg]=CL_INTRINSIC_INVIVO [ml/min/kg]×hepatic blood flow [ml/min/kg]/(CL_INTRINSIC_INVIVO [ml/min/kg]+hepatic blood flow [ml/min/kg]) Qh[%]=CL [ml/min/kg]/hepatic blood flow [ml/min/kg]) […]
Hepatocellularity, human: 120×10^6 cells/g liver
Liver factor, human: 25.7 g/kg bodyweight
Blood flow, human: 21 ml/(min×kg)
A satisfying human hepatocyte stability for a compound in question measured by this assay is represented by a Qh<20% (whereby the stability is better, the lower the Qh-value is).

| Structure (SMILES) | stability in human hepatocytes (chapter 5.7) HEPhu [% Qh] |
| --- | --- |
| C[C@@H](Oc1cc(-c2cnn(C(C)(C)C)c2)cc2ncn(C)c12)[C@H]1CNC(=O)C1 [example 3B.22 on page 219 of WO15017610, reference compound] | 5 |
| C[C@@H](Oc1nc(-c2cnn(C(C)(C)C)c2)cc2ncn(C)c12)[C@H]1CNC(=O)C1 [example 3A.02, on page 196 of WO15017610, reference compound] | 7 |
| Cc1c2c(O[C@H](C)[C@H]3CNC(=O)C3)cc(-c3cnn([C@@H]4CCOC(C)(C)C4)c3)cc2nn1C [Example 9, (R)-4-((R)-1-{6-[1-((R)-2,2-Dimethyl-tetrahydro-pyran-4-yl)-1H-pyrazol-4-yl]-2,3-dimethyl-2H-indazol-4-yloxy}-ethyl)-pyrrolidin-2-one] | 6 |
| Cc1cnn2cc(-c3cnn(C(C)(C)C)c3)nc(O[C@H](C)[C@H]3CNC(=O)C3)c12 [example 5.20 on page 506 of WO15017610, reference compound] | 31 |
| C[C@@H](Oc1cc(-c2cnn(C3CCC(F)(F)C3)c2)cc2nn(C)c(F)c12)[C@H]1CNC(=O)C1 (some centres unmarked) [Example 7] | <4 |
| Cc1c2c(O[C@H](C)[C@H]3CNC(=O)C3)nc(-c3c[nH]nc3C(C)(C)C)cc2nn1C [Example 4, (R)-4-{(R)-1-[6-(3-tert-Butyl-1H-pyrazol-4-yl)-2,3-dimeth-yl-2H-pyrazolo[4,3-c]pyridin-4-yloxy]-ethyl}-pyrrolidin-2-one] | 10 |
| C[C@@H](Oc1cc(-c2cnn(C3CCC3)c2)cc2nn(C)c(F)c12)[C@H]1CNC(=O)C1 [Example 1, (R)-4-{(R)-1-[6-(1-Cyclobutyl-1H-pyrazol-4-yl)-3-fluoro-2-methyl-2H-indazol-4-yloxy]-ethyl}-pyrrolidin-2-one] | 10 |
| Cc1c2c(O[C@H](C)[C@H]3CNC(=O)C3)cc(-c3cnn(C(C)C)c3)cc2nn1C [Example 18, (R)-4-{(R)-1-[6-(1-Isopropyl-1H-pyrazol-4-yl)-2,3-dimethyl-2H-indazol-4-yloxy]-ethyl}-pyrrolidin-2-one] | <4 |
| Cc1c2c(O[C@H](C)[C@H]3CNC(=O)C3)cc(-c3cnn(C4CCC(F)(F)C4)c3)cc2nn1C (stereo partly drawn) [Example 22, (R)-4-((R)-1-{6-[1-(3,3-Difluoro-cyclopentyl)-1H-pyrazol-4-yl]-2,3-dimethyl-2H-indazol-4-yloxy}-ethyl)-pyrrolidin-2-one] | 3 |
| C[C@@H](Oc1cc(-c2cnn(CCC(F)(F)F)c2)cc2nn(C)c(F)c12)[C@H]1CNC(=O)C1 [Example 12, (R)-4-((R)-1-{3-Fluoro-2-methyl-6-[1-(3,3,3-trifluoro-propyl)-1H-pyrazol-4-yl]-2H-indazol-4-yloxy}-ethyl)-pyrrolidin-2-one] | <4 |
| Cc1c2c(O[C@H](C)[C@H]3CNC(=O)C3)cc(-c3cnn(C4CC4)c3)cc2nn1C [Example 20, (R)-4-{(R)-1-[6-(1-Cyclopropyl-1H-pyrazol-4-yl)-2,3-dimethyl-2H-indazol-4-yloxy]-ethyl}-pyrrolidin-2-one] | <4 |
| Cc1cnn2cc(-c3cnn(C(C)(C)C)c3)cc(O[C@H](C)[C@H]3CNC(=O)C3)c12 [example 6.09 on page 559 of WO15017610, reference compound] | 17 |
| Cc1c2c(O[C@H](C)[C@H]3CNC(=O)C3)cc(-c3cnn(CCF)c3)cc2nn1C [Example 11, (R)-4-((R)-1-{6-[1-(2-Fluoro-ethyl)-1H-pyrazol-4-yl]-2,3-dimethyl-2H-indazol-4-yloxy}-ethyl)-pyrrolidin-2-one] | 4 |
| Cc1c2c(O[C@H](C)[C@H]3CNC(=O)C3)cc(-c3cnn(C(C)(C)C)c3)cc2nn1C [Example 13, (R)-4-{(R)-1-[6-(1-tert-Butyl-1H-pyrazol-4-yl)-2,3-dimethyl-2H-indazol-4-yloxy]-ethyl}-pyrrolidin-2-one] | 3 |
| Cc1cc2c(O[C@H](C)[C@H]3CNC(=O)C3)cc(-c3cnn(C(C)(C)C)c3)cn2n1 [example 6.60 on page 587 of WO15017610, reference compound] | <4 |
| Cc1c2c(O[C@H](C)[C@H]3CNC(=O)C3)cc(-c3cnn(C(C)(C)C#N)c3)cc2nn1C [Example 17, 2-(4-{2,3-Dimethyl-4-[(R)-1-((R)-5-oxo-pyrrolidin-3-yl)-ethoxy]-2H-indazol-6-yl}-pyrazol-1-yl)-2-methyl-propionitrile] | 4 |
| Cc1c2c(O[C@H](C)[C@H]3CNC(=O)C3)cc(-c3cnn(C4CC(C)(C)OC4(C)C)c3)cc2nn1C (stereo partly drawn) [Example 16, (R)-4-((R)-1-{2,3-Dimethyl-6-[1-(2,2,5,5-tetramethyl-tetrahydro-furan-3-yl)-1H-pyrazol-4-yl]2H-indazol-4-yloxy}-ethyl)-pyrrolidin-2-one] | 6 |
| CC(C)n1cc(-c2cc(O[C@H](C)[C@H]3CNC(=O)C3)c3c(F)n(C)nc3c2)cn1 [Example 2, (R)-4-{(R)-1-[3-Fluoro-6-(1-isopropyl-1H-pyrazol-4-yl)-2-methyl-2H-indazol-4-yloxy]-ethyl}-pyrrolidin-2-one] | <4 |
| Cc1c2c(O[C@H](C)[C@H]3CNC(=O)O3)nc(-c3cnn(C(C)(C)C)c3)cc2nn1C [Example 3, (R)-5-{(R)-1-[6-(1-tert-Butyl-1H-pyrazol-4-yl)-2,3-dimethyl-2H-pyrazolo[4,3-c]pyridin-4-yloxy]-ethyl}-oxazolidin-2-one] | 7 |
| Cc1c2c(O[C@H](C)[C@H]3CNC(=O)C3)cc(-c3cnn([C@H]4CO[C@@H]5CCCO[C@@H]54)c3)cc2nn1C [Example 10, 4-(1-{6-[(R)-(3S,3aR,7aR)-1-(Hexahydro-furo[3,2-b]pyran-3-yl)-1H-pyrazol-4-yl]-2,3-dimethyl-2H-indazol-4-yloxy}-ethyl)-pyrrolidin-2-one] | 9 |
| Cc1c2c(O[C@H](C)[C@H]3CNC(=O)C3)cc(-c3cnn(CC(C)C)c3)cc2nn1C [Example 19, (R)-4-{(R)-1-[6-(1-Isobutyl-1H-pyrazol-4-yl)-2,3-dimethyl-2H-indazol-4-yloxy]-ethyl}-pyrrolidin-2-one] | 7 |
| C[C@@H](Oc1cc(-c2cnn(CC3CC3)c2)cc2nn(C)c(F)c12)[C@H]1CNC(=O)C1 [Example 6, (R)-4-{(R)-1-[6-(1-Cycloprop-ylmethyl-1H-pyrazol-4-yl)-3-fluoro-2-methyl-2H-indazol-4-yloxy]-ethyl}-pyrrolidin-2-one] | 6 |
| Cc1c2c(O[C@H](C)[C@H]3CNC(=O)C3)cc(-c3cnn(CC4CC4)c3)cc2nn1C [Example 8, (R)-4-{(R)-1-[6-(1-Cyclopropylmethyl-1H-pyrazol-4-yl)-2,3-dimethyl-2H-indazol-4-yloxy]-ethyl}-pyrrolidin-2-one] | 5 |
| C[C@@H](Oc1cc(-c2cnn(C3CC(C)(C)OC3(C)C)c2)cc2nn(C)c(F)c12)[C@H]1CNC(=O)C1 (stereo partly drawn) [Example 14, (R)-4-((R)-1-{3-Fluoro-2-methyl-6-[1-(2,2,5,5-tetramethyl-tetrahydro-furan-3-yl)-1H-pyrazol-4-yl]-2H-indazol-4-yloxy}-ethyl)-pyrrolidin-2-one] | 12 |
| C[C@@H](Oc1cc(-c2cnn(C3CC3)c2)cc2nn(C)c(F)c12)[C@H]1CNC(=O)C1 [Example 5, (R)-4-{(R)-1-[6-(1-Cycloprop-yl-1H-pyrazol-4-yl)-3-fluoro-2-methyl-2H-indazol-4-yloxy]-ethyl}-pyrrolidin-2-one] | <4 |
| Cc1c2c(O[C@H](C)[C@H]3CNC(=O)C3)cc(-c3cnn(C4CCC4)c3)cc2nn1C [Example 21, (R)-4-{(R)-1-[6-(1-Cyclobutyl-1H-pyrazol-4-yl)-2,3-dimethyl-2H-indazol-4-yloxy]-ethyl}-pyrrolidin-2-one] | 7 |
